For 18 molecules, IC50 results are on record in US5891917A, “Certain acrylonitrile-sulfonamide derivatives” (Sugen, Inc., priority 1997, dated 1999).

Format in all cases: cell-based
One assay deals with T1, PDGFR-beta (Homo sapiens, UniProt P09619).
T1 construct: the human glioblastoma line U1242 that expresses PDGFR-beta; endogenous in cells; host or cells: U1242 MG human glioblastoma cells
Put plainly: PDGF-R Cellular Assay (ELISA). Particulars: U1242 MG cells, 100 ng/ml PDGF-BB. The text has this: (§1) The following examples illustrate the ability of the exemplary compounds to inhibit receptor tyrosine kinases, such as HER2 and/or EGFR. The following target cells were used for cellular kinase assays: NIH3T3 clone C7 (Honegger et al., supra) engineered to over-express human EGF receptor; NIH3T3 cells engineered to over-express a chimeric receptor containing the EGFR extracellular domain and the HER2 intracellular kinase domain; the human mammary carcinoma line BT474 (ATCC HTB2) expressing HER2; and the human glioblastoma line U1242 that expresses PDGFR-beta. Growth assays were carried out using human mammary epithelial SKBR3 (ATCC HTB30) cells (SKBR3 cells over-express HER2), SKOV3 (ATCC HTB77) human ovarian cancer cell line (SKOV3 cells also over-express HER2), A431 cells (A431 cells over-express EGFR) MCF7 human breast carcinoma cells, MCF7 cells overexpressing the HER2 kinase (MCF7-HER2), NIH3T3 cells, and NIH3T3 cells overexpressing the HER2 kinase (3T3-HER2.
The PDGF cellular kinase assay was carried out as follows: cells are lysed in 0.2M Hepes, 0.15M NaCl, 10% V/V glycerol, 0.04% Triton X-100, 5 mM EDTA, 5 rnM Na+ vanadate and 2 mM Na+ pyrophosphate; cell lysates are then added to an ELISA plate coated with an anti-PDGF receptor antibody (Genzyme); ELISA plates are coated at 0.5 μg of antibody/well in 150 μl of PBS for 18 hours at 4° C. prior to the addition of the lysate; the lysate is incubated in the coated plates for 1 hour and then washed four times in TBST (35 mM Tris-HCl pH 7.0, 0.15M NaCl, 0.1% Triton X100); anti-phosphotyrosine antibody (100 μl in PBS) is added and the mixture is incubated for 30 minutes at room temperature; the wells were then washed four times in TBST, a secondary antibody conjugated to POD (TAGO) is added to each well, and the treated well are incubated for 30 minutes at room temperature; the wells are then washed four times in TBST, ABTS/H2 O2 solution is added to each well and the wells are incubated for two minutes; absorbance is then measured at 410 nm.
U1242 MG cells were plated in 96-well plates at a concentration of 5×10^4 cells/well in cultured media containing 0.5% FBS. The cells were incubated for 24 hours. The cells were then treated with a particular compound for 2 hours followed by the addition of 100 ng/ml PDGF-BB and incubation for 10 minutes.
Cells were lysed in 0.2M Hepes, 0.15M NaCl, 10% V/V glycerol, 0.04% Triton X-100, 5 mM EDTA, 5 mM Na+ vanadate and 2 mM Na+ pyrophosphate. Cell lysates were then added to an ELISA plate coated with an anti-PDGF receptor antibody (Genzyme). ELISA plates were coated at 0.5 μg of antibody/well in 150 μl of PBS for 18 hours at 4° C. prior to the addition of the lysate.
The lysate was incubated in the coated plates for 1 hour and then washed four times in TBST (35 mM Tris-HCl pH 7.0, 0.15M NaCl, 0.1 % Triton X-100). Anti-phosphotyrosine antibody (100 μl in PBS) was added and the mixture was incubated for 30 minutes at room temperature. The wells were then washed four times in TBST, a secondary antibody conjugated to POD (TAGO) was added to each well, and the treated well were incubated for 30 minutes at room temperature. The wells were then washed four times in TBST, ABTS/H2 O2 solution was added to each well and the wells were incubated for two minutes. Absorbance was then measured at 410 nm.
(In general: ELISA stands for enzyme-linked immunosorbent assay.)

The next assay addresses T2, HER2 (Homo sapiens, UniProt P04626).
T2 construct: a human breast tumor cell line which expresses high levels of HER2 kinase; endogenous in cells; host or cells: BT-474 human breast tumor cells
Put plainly: HER2-BT474 whole cell ELISA. Particulars: BT-474 cells.
Text: as §1
HER2-BT474 assays measuring whole cell HER2 activity was carried out as described below:
1. The cell line used in this assay is BT-474 (ATCC HBT20), a human breast tumor cell line which expresses high levels of HER2 kinase.
2. BT-474 is grown in an incubator with 5% CO2 at 37° C. The growth media is RPMI+10% FBS+GMS-G (Gibco supplement)+Glutamine.
(a) Grow BT474 cells in tissue culture dishes (10 cm, Corning 25020-100) to 80-90% confluence and collect using Trypsin-EDTA (0.25%, GIBCO).
(b) Resuspend the cells in fresh medium and transfer to 96-well tissue culture plates (Corning, 25806-96) at about 25,000-50,000 cells/well (100 μl/well). Incubate the cells in 5% CO2 at 37° C. overnight.
(a) Coat the ELISA plate (Corning 25805-96) with anti HER2 antibody at 0.5 μg/well in 150 μl PBS overnight at 4° C., and seal with parafilm. The antibody coated plates can be used up to 2 weeks, when stored at 4° C.
(b) On the day of use, remove the coating solution, replace with 200 μl of Blocking Buffer, shake the plate, and then remove the blocking buffer and wash the plate just before adding lysate.
(a) […] the drugs in serum-free condition. Before adding drugs, the old media is replaced with serum-free RPMI (90 μl/well)
(b) Dilute drug stock (in 100% DMSO) 1:10 with RPMI, and transfer 10 μl/well of this solution to the cells to achieve a final drug DMSO concentration at 1%. Incubate the cells in 5% CO2 at 37° C.
(c) Prepare fresh cell lysis buffer (HNTG*)
(d) After drug preincubation for two hours remove all the solution from the plate, transfer HNTG* 100 μl/well to the cells, and shake for 10 minutes.
(e) Use a 12-channel pipette to scrape the cells from the plate, and homogenize the lysate by repeat aspiration and dispensing. Transfer all the lysate to the ELISA plate and shake for 1 hour.
(f) Remove the lysate, wash the plate, add anti-pTyr (1:3,000 with TBST) 100 μl/well, and shake for 30 minutes.
(g) Remove anti-pTyr, wash the plate, add goat anti-rabbit IgG conjugated antibody (1:5,000 with TBST) 100 μl/well, and shake for 30 minutes.
(h) Remove anti-rabbit IgG antibody, wash the plate, and add fresh ABTS/H2 O2 (1.2 μl 30% H2 O2 to 10 ml ABTS) 100 μ/well to the plate to start color development, which usually takes 20 minutes.
(I) Measure OD 410 nm, Dynatec MR5000.

In another assay the test system is MCF7/HER2 cells. Put plainly: MCF-7/HER-2 SRB Growth Assay. Particulars: Homo sapiens, read-out: Growth Data: MC7/HER2 (0.5% FBS).
Text: as §1
MCF-7/HER-2 SRB Growth Assay
The protocol is basically the same as that above (for the MCF-7 Growth Assay) except that immediately before the 30 compound is added, the normal growth media is removed and 0.5% FBS/RPMI supplemented with 2 mM Glutamine is added onto the cells. The compound is also prepared in this 0.5% serum media. The plate of cells is incubated for four days and developed as usual.

Each structure is given as a SMILES string.

T2 sequence (P04626 23-1255): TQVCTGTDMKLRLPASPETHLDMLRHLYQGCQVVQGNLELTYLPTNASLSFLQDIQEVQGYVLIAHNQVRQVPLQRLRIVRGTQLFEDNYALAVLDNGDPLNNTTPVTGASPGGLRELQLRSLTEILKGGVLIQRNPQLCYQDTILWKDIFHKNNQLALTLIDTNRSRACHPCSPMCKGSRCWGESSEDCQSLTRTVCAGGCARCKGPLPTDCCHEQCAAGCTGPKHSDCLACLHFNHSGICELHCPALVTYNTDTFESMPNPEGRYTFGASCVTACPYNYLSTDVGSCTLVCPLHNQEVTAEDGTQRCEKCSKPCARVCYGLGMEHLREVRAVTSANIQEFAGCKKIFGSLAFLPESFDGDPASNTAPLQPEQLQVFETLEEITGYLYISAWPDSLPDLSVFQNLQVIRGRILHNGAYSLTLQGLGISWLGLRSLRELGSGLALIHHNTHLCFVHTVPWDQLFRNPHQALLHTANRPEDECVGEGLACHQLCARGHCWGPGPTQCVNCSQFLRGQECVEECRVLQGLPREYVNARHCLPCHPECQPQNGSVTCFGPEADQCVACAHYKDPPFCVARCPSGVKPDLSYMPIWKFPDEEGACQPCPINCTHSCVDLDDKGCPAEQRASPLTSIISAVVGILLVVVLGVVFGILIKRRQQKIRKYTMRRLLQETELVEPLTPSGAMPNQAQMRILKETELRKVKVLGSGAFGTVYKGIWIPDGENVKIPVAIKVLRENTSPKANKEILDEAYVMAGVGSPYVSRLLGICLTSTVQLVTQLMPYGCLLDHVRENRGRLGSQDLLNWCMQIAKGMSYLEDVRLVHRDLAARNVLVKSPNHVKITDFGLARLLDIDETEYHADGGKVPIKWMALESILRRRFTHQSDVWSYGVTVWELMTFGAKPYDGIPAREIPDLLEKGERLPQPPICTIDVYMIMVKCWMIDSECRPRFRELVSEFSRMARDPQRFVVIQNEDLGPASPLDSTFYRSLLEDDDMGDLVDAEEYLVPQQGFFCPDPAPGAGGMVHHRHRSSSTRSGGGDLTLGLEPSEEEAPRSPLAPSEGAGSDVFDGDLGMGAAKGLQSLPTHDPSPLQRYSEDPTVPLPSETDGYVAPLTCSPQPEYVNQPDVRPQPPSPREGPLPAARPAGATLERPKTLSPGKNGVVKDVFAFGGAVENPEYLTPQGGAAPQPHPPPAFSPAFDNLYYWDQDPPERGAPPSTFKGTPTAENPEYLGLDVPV
T1 sequence (P09619 33-1106): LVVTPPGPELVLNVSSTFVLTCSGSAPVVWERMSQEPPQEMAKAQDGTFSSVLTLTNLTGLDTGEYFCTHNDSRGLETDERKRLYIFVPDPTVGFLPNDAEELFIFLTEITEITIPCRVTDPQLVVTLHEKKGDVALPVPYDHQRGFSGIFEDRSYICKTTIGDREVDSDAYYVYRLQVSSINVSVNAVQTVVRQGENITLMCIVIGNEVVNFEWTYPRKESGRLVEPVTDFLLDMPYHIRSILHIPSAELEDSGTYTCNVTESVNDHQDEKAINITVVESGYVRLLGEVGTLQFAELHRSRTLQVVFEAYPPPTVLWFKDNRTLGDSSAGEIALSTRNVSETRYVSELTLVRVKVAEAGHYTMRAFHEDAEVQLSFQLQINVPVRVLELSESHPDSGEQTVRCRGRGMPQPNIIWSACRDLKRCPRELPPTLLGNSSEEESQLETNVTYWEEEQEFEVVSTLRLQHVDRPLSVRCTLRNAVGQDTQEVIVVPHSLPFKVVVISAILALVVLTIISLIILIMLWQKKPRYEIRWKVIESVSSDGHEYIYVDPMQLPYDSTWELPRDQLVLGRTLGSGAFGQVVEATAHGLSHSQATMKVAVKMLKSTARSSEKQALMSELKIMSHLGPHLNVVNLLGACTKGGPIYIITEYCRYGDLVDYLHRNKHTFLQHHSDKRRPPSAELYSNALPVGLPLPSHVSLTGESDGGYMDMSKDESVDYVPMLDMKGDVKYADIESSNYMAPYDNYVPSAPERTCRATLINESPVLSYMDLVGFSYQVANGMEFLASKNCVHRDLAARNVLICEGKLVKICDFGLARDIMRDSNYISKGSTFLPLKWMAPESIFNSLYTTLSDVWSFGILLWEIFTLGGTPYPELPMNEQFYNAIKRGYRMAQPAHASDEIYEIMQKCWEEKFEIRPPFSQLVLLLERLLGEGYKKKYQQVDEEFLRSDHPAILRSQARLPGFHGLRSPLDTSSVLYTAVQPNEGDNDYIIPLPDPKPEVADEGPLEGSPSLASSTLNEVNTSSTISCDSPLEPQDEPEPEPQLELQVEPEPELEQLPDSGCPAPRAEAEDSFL

Consider `N#C/C(=C\c1ccc(O)c(O)c1)S(=O)(=O)c1cccs1` [Compound 743, (E)-3-(3,4-Dihydroxyphenyl)-2-[(thien-2-yl)sulfonyl]acrylonitrile], for which the IC50 against PDGFR-beta is over 100000 nM; against HER2, 12600 nM.

Turning to `CC(C)(C)c1cc(/C=C(\C#N)S(=O)(=O)c2ccc(F)cc2)cc(C(C)(C)C)c1O` [Compound 740], the IC50 at PDGFR-beta is over 100000 nM; against HER2 it was 400 nM; with MCF7/HER2 cells it was 7 nM.

For `Cc1cc(/C=C(\C#N)S(=O)(=O)c2ccc(F)cc2)cc(C)c1O` [Compound 744], the figures for the IC50 on PDGFR-beta, on HER2 and in the assay on MCF7/HER2 cells were over 100000 nM, 4500 nM and 46000 nM, respectively.

For `CC(C)(C)c1cc(/C=C(\C#N)S(=O)(=O)c2cccs2)cc(C(C)(C)C)c1O` [Compound 742], the values for the IC50 on PDGFR-beta, against HER2 and in the assay on MCF7/HER2 cells were over 100000 nM, 200 nM and 200 nM, respectively.

With `N#C/C(=C\c1ccc(O)cc1Cl)S(=O)(=O)NCc1ccccc1` [Compound 733], the IC50 against PDGFR-beta was over 50000 nM; against HER2, 5800 nM; with MCF7/HER2 cells, 16000 nM.

Consider `CC(C)c1cc(/C=C(\C#N)S(=O)(=O)Cc2cccc(C(F)(F)F)c2)cc(C(C)C)c1O` [Compound 736], for which the IC50 was over 100000 nM at PDGFR-beta, 800 nM against HER2 and 1000 nM with MCF7/HER2 cells.

With `CC(C)c1cc(/C=C(\C#N)S(=O)(=O)c2ccccn2)cc(C(C)C)c1O` [Compound 747], the IC50 against PDGFR-beta is over 50000 nM; in the assay with MCF7/HER2 cells, 26000 nM.

Take `CC(C)c1cc(/C=C(\C#N)S(=O)(=O)c2ccc(F)cc2)cc(C(C)C)c1O` [Compound 741, (E)-3-(3,5-Diisopropyl-4-hydroxyphenyl)-2-(4-fluorophenylsulfonyl)acrylonitrile]: the IC50 against PDGFR-beta is over 100000 nM; with MCF7/HER2 cells, 1000 nM.

For the molecule `N#C/C(=C\c1ccc(O)cc1Cl)S(=O)(=O)NCCCc1ccccc1` [Compound 734], the IC50 against PDGFR-beta is over 50000 nM; at HER2, 1800 nM; in the assay on MCF7/HER2 cells, 7000 nM.

Take `CC(C)(C)c1cc(/C=C(\C#N)S(=O)(=O)Cc2cccc(C(F)(F)F)c2)cc(C(C)(C)C)c1O` [Compound 735]: the IC50 is over 100000 nM on PDGFR-beta, 300 nM against HER2 and 500 nM in the assay with MCF7/HER2 cells.

On to `CC(C)c1cc(/C=C(\C#N)S(=O)(=O)c2cccs2)cc(C(C)C)c1O` [Compound 737], for which the values for the IC50 against PDGFR-beta, against HER2 and with MCF7/HER2 cells were over 100000 nM, 1000 nM and 3000 nM, respectively.

In the case of `CC(C)(C)c1cc(/C=C(\C#N)S(=O)(=O)c2ccsc2)cc(C(C)(C)C)c1O` [Compound 746], the IC50 is over 100000 nM against PDGFR-beta, 300 nM at HER2 and 300 nM in the assay on MCF7/HER2 cells.

Turning to `Cc1cc(/C=C(\C#N)S(=O)(=O)c2ccccc2)cc(C)c1O` [Compound 748], the IC50 is over 100000 nM at PDGFR-beta and 46000 nM in the assay on MCF7/HER2 cells.

The molecule `CC(C)c1cc(/C=C(\C#N)S(=O)(=O)/C(C#N)=C/c2cc(C(C)C)c(O)c(C(C)C)c2)cc(C(C)C)c1O` [Compound 745] displayed an IC50 at HER2 of over 50000 nM.

As to `CC(C)c1cc(/C=C(\C#N)S(=O)(=O)c2ccccc2)cc(C(C)C)c1O` [Compound 731], the IC50 is over 50000 nM at PDGFR-beta, 300 nM on HER2 and 1000 nM in the assay with MCF7/HER2 cells.

`CC(C)c1cc(/C=C(\C#N)S(=O)(=O)c2ccsc2)cc(C(C)C)c1O` [Compound 738]: the figures for the IC50 on PDGFR-beta, against HER2 and in the assay on MCF7/HER2 cells were over 100000 nM, 1300 nM and 3000 nM, respectively.

Consider `Cc1cc(/C=C(\C#N)S(=O)(=O)Cc2cccc(C(F)(F)F)c2)cc(C)c1O` [Compound 739], for which the figures for the IC50 on PDGFR-beta, against HER2 and in the assay on MCF7/HER2 cells were over 100000 nM, 4100 nM and 14000 nM, respectively.

Take `CC(C)c1cc(/C=C(\C#N)S(=O)(=O)NCc2ccccc2)cc(C(C)C)c1O` [Compound 732]: the IC50 turned out to be 50000 nM on PDGFR-beta, 1900 nM on HER2 and 2500 nM with MCF7/HER2 cells.
